Data as given in patent US7553969B1, “Substituted phenethylamine derivatives” (Chugai Seiyaku Kabushiki Kaisha, priority 1999, dated 2009).
Where a SMILES comes first, the peptide text is derived from it. [ ]: non-standard residue; d: D form. The star is where a group is joined. NMeTyr(3-tBu) = CN[C@@H](Cc1ccc(O)c(C(C)(C)C)c1)C(=O)O; Tyr(3-tBu) = CC(C)(C)c1cc(C[C@H](N)C(=O)O)ccc1O; NMePhe(4-F) = CN[C@@H](Cc1ccc(F)cc1)C(=O)O; Phe(4-F) = N[C@@H](Cc1ccc(F)cc1)C(=O)O; NMeV = CN[C@H](C(=O)O)C(C)C; NHtBu = CC(C)(C)N*

Assays:
motilin receptor = molecular target: T1, motilin receptor (Oryctolagus cuniculus, UniProt G1T803); experiment: Motilin receptor binding test (125I motilin, rabbit duodenum protein sample); details: 125I motilin 25 pM, concentration reducing specific binding by 50%
T1 construct: homogenized in 50 mM Tris buffer to prepare a protein sample; from tissue; host or cells: rabbit duodenum homogenate (mucous membrane separated)
Procedure: Motilin receptor binding test
A motilin receptor binding test was conducted in the following manner [Vantrappen et al., Regul. Peptides, 15, 143 (1986)]. The duodenum was extracted from a slaughtered rabbit, had the mucous membrane separated and homogenized in 50 mM Tris buffer to prepare a protein sample. The protein sample was incubated together with ^125I motilin 25 pM and thereafter the radioactivity bound to the protein was measured. Specific binding was defined as the difference between the radioactivity in the case of adding a great excess amount of motilin (10^−7 M) and that in the case of no adding. The activity of the compound was expressed by IC50 (in nM), as the concentration sufficient to reduce the specific binding by 50%.

[1] = tested on: specimen of longitudinal muscle in the duodenum extracted from a rabbit (motilin-induced contraction); experiment: Action on the motilin-induced contraction of a specimen of longitudinal muscle in the duodenum extracted from a rabbit; details: organ bath, Krebs solution 28° C.; for Kb: Oryctolagus cuniculus, read-out: Contraction suppressing test, pA2 (converted)
Procedure: Action on the Contraction of a Specimen of Longitudinal Muscle in the Duodenum Extracted from a Rabbit
The action on the motilin-induced contraction of a specimen of longitudinal muscle in the duodenum extracted from a rabbit was investigated by the following method. A duodenum specimen (5×15 mm) extracted from a slaughtered rabbit was suspended in an organ bath (10 ml) such that the longitudinal muscle would run vertically; the bath was filled with a Krebs solution kept at 28° C. A mixed gas (95% O2 and 5% CO2) was continuously bubbled into the Krebs solution and the contraction of the duodenum specimen was recorded isotonically (with a 1-g load) via an isotonic transducer (ME-3407, ME Commercial, Tokyo, Japan). The degree of contraction was expressed in relative values, with the contraction by acetylcholine at a dose of 10^−4 M being taken as 100%. The activity of the compound was calculated as pA2 value indicating its effect on the dose-dependent muscle contraction by the motilin put into the organ bath.

T1 sequence (G1T803 1-400): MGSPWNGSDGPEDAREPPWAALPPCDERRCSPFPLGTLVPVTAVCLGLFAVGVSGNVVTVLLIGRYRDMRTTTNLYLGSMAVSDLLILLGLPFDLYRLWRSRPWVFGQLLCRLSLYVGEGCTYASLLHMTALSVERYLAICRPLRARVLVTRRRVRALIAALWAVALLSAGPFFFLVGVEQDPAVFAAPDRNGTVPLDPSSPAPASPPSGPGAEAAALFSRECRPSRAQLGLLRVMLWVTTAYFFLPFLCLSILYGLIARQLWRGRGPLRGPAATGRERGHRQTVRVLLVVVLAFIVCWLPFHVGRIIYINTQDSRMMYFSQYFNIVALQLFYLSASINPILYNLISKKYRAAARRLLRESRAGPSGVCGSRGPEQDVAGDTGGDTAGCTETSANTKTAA

SMILES	IC50 (motilin receptor) [nM]	Kb [1] [nM]	Contraction suppressing test, pA2 [1]
CN[C@@H](Cc1ccc(F)cc1)C(=O)N(C)[C@H](C(=O)N[C@@H](Cc1ccc(O)c(C(C)(C)C)c1)C(N)=O)C(C)C [Example 29, N-Me-Phe(4-F)-N-Me-Val-Tyr(3-tBu)-NH2] (H-[NMePhe(4-F)]-[NMeV]-[Tyr(3-tBu)]-NH2)	0.45	2	
CCN[C@@H](Cc1ccc(F)cc1)C(=O)N(C)[C@H](C(=O)N[C@@H](Cc1ccc(O)c(C(C)(C)C)c1)C(N)=O)C(C)C [Example 30, N-Et-Phe(4-F)-N-Me-Val-Tyr(3-tBu)-NH2]	0.81	0.794	
CNC(=O)[C@H](Cc1ccc(O)c(C(C)(C)C)c1)NC(=O)[C@H](C(C)C)N(C)C(=O)[C@@H](N)Cc1ccc(F)cc1 [Example 31, Phe(4-F)-N-Me-Val-Tyr(3-tBu)-NHMe] (H-[Phe(4-F)]-[NMeV]-[Tyr(3-tBu)]-NHMe)	0.79	0.316	
CNC(=O)[C@H](Cc1ccc(O)c(C(C)(C)C)c1)NC(=O)[C@H](C(C)C)N(C)C(=O)[C@H](Cc1ccc(F)cc1)NC [Example 32, N-Me-Phe(4-F)-N-Me-Val-Tyr(3-tBu)-NHMe] (H-[NMePhe(4-F)]-[NMeV]-[Tyr(3-tBu)]-NHMe)	0.76	0.794	
CCN[C@@H](Cc1ccc(F)cc1)C(=O)N(C)[C@H](C(=O)N[C@@H](Cc1ccc(O)c(C(C)(C)C)c1)C(=O)NC)C(C)C [Example 33, N-Et-Phe(4-F)-N-Me-Val-Tyr(3-tBu)-NHMe]	1.7	3.98	
CN[C@@H](Cc1ccc(F)cc1)C(=O)N(C)[C@H](C(=O)N(C)[C@@H](Cc1ccc(O)c(C(C)(C)C)c1)C(N)=O)C(C)C [Example 34, N-Me-Phe(4-F)-N-Me-Val-N-Me-Tyr(3-tBu)-NH2] (H-[NMePhe(4-F)]-[NMeV]-[NMeTyr(3-tBu)]-NH2)	1.5	0.398	
CCN[C@@H](Cc1ccc(F)cc1)C(=O)N(C)[C@H](C(=O)N(C)[C@@H](Cc1ccc(O)c(C(C)(C)C)c1)C(N)=O)C(C)C [Example 35, N-Et-Phe(4-F)-N-Me-Val-N-Me-Tyr(3-tBu)-NH2]	1.7	1.58	
CNC(=O)[C@H](Cc1ccc(O)c(C(C)(C)C)c1)N(C)C(=O)[C@H](C(C)C)N(C)C(=O)[C@@H](N)Cc1ccc(F)cc1 [Example 36, Phe(4-F)-N-Me-Val-N-Me-Tyr(3-tBu)-NHMe] (H-[Phe(4-F)]-[NMeV]-[NMeTyr(3-tBu)]-NHMe)	2.3	1.58	
CNC(=O)[C@H](Cc1ccc(O)c(C(C)(C)C)c1)N(C)C(=O)[C@H](C(C)C)N(C)C(=O)[C@H](Cc1ccc(F)cc1)NC [Example 37, N-Me-Phe(4-F)-N-Me-Val-N-Me-Tyr(3-tBu)-NHMe] (H-[NMePhe(4-F)]-[NMeV]-[NMeTyr(3-tBu)]-NHMe)	0.6	1.58	
CCN[C@@H](Cc1ccc(F)cc1)C(=O)N(C)[C@H](C(=O)N(C)[C@@H](Cc1ccc(O)c(C(C)(C)C)c1)C(=O)NC)C(C)C [Example 38, N-Et-Phe(4-F)-N-Me-Val-N-Me-Tyr(3-tBu)-NHMe]	3	6.31	
CCN(C(=O)[C@H](C(C)C)N(C)C(=O)[C@@H](N)Cc1ccc(F)cc1)[C@@H](Cc1ccc(O)c(C(C)(C)C)c1)C(N)=O [Example 39, Phe(4-F)-N-Me-Val-N-Et-Tyr(3-tBu)-NH2]	2	2	
CCN(C(=O)[C@H](C(C)C)N(C)C(=O)[C@H](Cc1ccc(F)cc1)NC)[C@@H](Cc1ccc(O)c(C(C)(C)C)c1)C(N)=O [Example 40, N-Me-Phe(4-F)-N-Me-Val-N-Et-Tyr(3-tBu)-NH2]	1.6	2.51	
CCN[C@@H](Cc1ccc(F)cc1)C(=O)N(C)[C@H](C(=O)N(CC)[C@@H](Cc1ccc(O)c(C(C)(C)C)c1)C(N)=O)C(C)C [Example 41, N-Et-Phe(4-F)-N-Me-Val-N-Et-Tyr(3-tBu)-NH2]	3.1	3.98	
CCN(C(=O)[C@H](C(C)C)N(C)C(=O)[C@@H](N)Cc1ccc(F)cc1)[C@@H](Cc1ccc(O)c(C(C)(C)C)c1)C(=O)NC [Example 42, Phe(4-F)-N-Me-Val-N-Et-Tyr(3-tBu)-NHMe]	1.2	5.01	
CCN(C(=O)[C@H](C(C)C)N(C)C(=O)[C@H](Cc1ccc(F)cc1)NC)[C@@H](Cc1ccc(O)c(C(C)(C)C)c1)C(=O)NC [Example 43, N-Me-Phe(4-F)-N-Me-Val-N-Et-Tyr(3-tBu)-NHMe]	1.9	3.16	
CCN[C@@H](Cc1ccc(F)cc1)C(=O)N(C)[C@H](C(=O)N(CC)[C@@H](Cc1ccc(O)c(C(C)(C)C)c1)C(=O)NC)C(C)C [Example 44, N-Et-Phe(4-F)-N-Me-Val-N-Et-Tyr(3-tBu)-NHMe]	3.6	3.16	
CC(C)[C@@H](C(=O)N[C@@H](Cc1ccc(O)c(C(C)(C)C)c1)C(=O)NC(C)(C)C)N(C)C(=O)[C@@H](N)Cc1ccc(F)cc1 [Example 63, Phe(4-F)-N-Me-Val-Tyr(3-tBu)-NHtBu] (H-[Phe(4-F)]-[NMeV]-[Tyr(3-tBu)]-NHtBu)	0.62	3.98	
CC(C)C(C(=O)N(C)C(Cc1ccc(O)c(C(C)(C)C)c1)C(=O)NCS(C)(=O)=O)N(C)C(=O)C(N)Cc1ccc(F)cc1 (centres unmarked) [Example 64, Phe(4-F)-N-Me-Val-N-Me-Tyr(3-tBu)-NHCH2SO2CH3]	1		9.0
CCNC(=O)[C@H](Cc1ccc(O)c(C(C)(C)C)c1)NC(=O)[C@H](C(C)C)N(C)C(=O)[C@@H](N)Cc1ccc(F)cc1 [Example 101, Phe(4-F)-N-Me-Val-Tyr(3-tBu)-NHEt] (H-[Phe(4-F)]-[NMeV]-[Tyr(3-tBu)]-NHEt)	0.24	1.26	
CCNC(=O)[C@H](Cc1ccc(O)c(C(C)(C)C)c1)NC(=O)[C@H](C(C)C)N(C)C(=O)[C@H](Cc1ccc(F)cc1)NC [Example 102, N-Me-Phe(4-F)-N-Me-Val-Tyr(3-tBu)-NHEt] (H-[NMePhe(4-F)]-[NMeV]-[Tyr(3-tBu)]-NHEt)	0.31	1	
CCNC(=O)[C@H](Cc1ccc(O)c(C(C)(C)C)c1)NC(=O)[C@H](C(C)C)N(C)C(=O)[C@H](Cc1ccc(F)cc1)NCC [Example 103, N-Et-Phe(4-F)-N-Me-Val-Tyr(3-tBu)-NHEt]	0.86	1.26	
CCNC(=O)[C@H](Cc1ccc(O)c(C(C)(C)C)c1)N(C)C(=O)[C@H](C(C)C)N(C)C(=O)[C@@H](N)Cc1ccc(F)cc1 [Example 104, Phe(4-F)-N-Me-Val-N-Me-Tyr(3-tBu)-NHEt] (H-[Phe(4-F)]-[NMeV]-[NMeTyr(3-tBu)]-NHEt)	0.32	0.794	
CCNC(=O)[C@H](Cc1ccc(O)c(C(C)(C)C)c1)N(C)C(=O)[C@H](C(C)C)N(C)C(=O)[C@H](Cc1ccc(F)cc1)NC [Example 105, N-Me-Phe(4-F)-N-Me-Val-N-Me-Tyr(3-tBu)-NHEt] (H-[NMePhe(4-F)]-[NMeV]-[NMeTyr(3-tBu)]-NHEt)	0.31	0.158	
CCNC(=O)[C@H](Cc1ccc(O)c(C(C)(C)C)c1)N(C)C(=O)[C@H](C(C)C)N(C)C(=O)[C@H](Cc1ccc(F)cc1)NCC [Example 106, N-Et-Phe(4-F)-N-Me-Val-N-Me-Tyr(3-tBu)-NHEt]	0.62	0.158	
CCNC(=O)[C@H](Cc1ccc(O)c(C(C)(C)C)c1)N(CC)C(=O)[C@H](C(C)C)N(C)C(=O)[C@@H](N)Cc1ccc(F)cc1 [Example 107, Phe(4-F)-N-Me-Val-N-Et-Tyr(3-tBu)-NHEt]	0.39	2	
